From EP2433948A1, “Use of a new class of nucleotide sugar as antibiotic or cytostatic agent” (Max-Planck-Gesellschaft zur Förderung der Wissenschaften …, priority 2010, dated 2012) come the findings set out here.

The target in this test is E. coli MurA (Escherichia coli, UniProt P0A749). Put plainly: MurA activity/inhibition assay (phosphate release coupled to PNPase cleavage of fluorescent 7-methylguanosine). The format is biochemical. The source says: • (a) MurA performs the first step of UDP-muramic acid biosynthesis. After sequential binding of UNAG and phosphoenolpyruvate, a tetrahedral intermediate is formed that yields enolpyruvyl-UNAG after cleavage of inorganic phosphate. UNAG-3P most likely mimics this tetrahedral intermediate and thereby inhibits MurA catalysis by a competitive binding mechanism. (b) Determination of the Ki of UNAG-3P for MurA. Enolpyruvyl-UNAG formation catalyzed by MurA from E. coli in presence of PEP and UNAG-3P and varying UNAG concentrations under steady state conditions. MurA enzyme kinetics were followed by coupling the reaction to phosphate dependent cleavage of fluorescent 7-methylguanosine by nucleoside phosphorylase resulting in a strong decrease of the fluorescence at 400 nm (λexc = 300 nm). The UNAG-3P concentrations for each saturation curve were 0 µM (●), 15 µM (□) and 30 µM (Δ). A Lineweaver-Burk plot is shown as inset.
The enolpyruvyl activity of E. coli MurA was monitored by coupling phosphate release to cleavage of fluorescent 7-methylguanosine (Sigma) by bacterial purine-nucleoside phosphorylase (PNPase) (Sigma). […] The reactions were monitored by the decrease in fluorescence at 400 nm with excitation set to 300 nm in a FluoroMax-3 spectrofluorometer (HORIBA Jobin Yvon) with excitation and emission bandwidths of 5 nm. […]

Sequence of E. coli MurA (P0A749 whole entry): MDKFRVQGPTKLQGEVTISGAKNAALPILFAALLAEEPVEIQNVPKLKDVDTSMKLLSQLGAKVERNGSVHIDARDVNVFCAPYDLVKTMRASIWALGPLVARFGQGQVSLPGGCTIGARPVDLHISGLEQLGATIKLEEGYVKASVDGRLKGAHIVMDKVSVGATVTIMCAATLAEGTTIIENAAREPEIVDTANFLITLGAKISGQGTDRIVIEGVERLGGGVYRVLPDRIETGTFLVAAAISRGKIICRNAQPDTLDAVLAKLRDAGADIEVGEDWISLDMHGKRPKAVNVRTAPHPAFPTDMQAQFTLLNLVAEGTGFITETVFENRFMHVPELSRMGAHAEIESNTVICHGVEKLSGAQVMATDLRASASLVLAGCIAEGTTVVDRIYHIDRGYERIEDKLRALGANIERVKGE

One may read the Ki as a measure of affinity in units of concentration, obtained from inhibition or displacement. High values mean weaker binding, low ones tighter binding. Compound `CC(=O)N[C@H]1[C@@H](OP(=O)(O)OP(=O)(O)OC[C@H]2O[C@@H](n3ccc(=O)[nH]c3=O)[C@H](O)[C@@H]2O)O[C@H](CO)[C@@H](O)[C@@H]1OP(=O)(O)O` [UNAG-3P, Uridinediphosphate-2-N-acetyl-3-phosphate-glucosamine] came in with a Ki of 7 µM.
